Data from ChEMBL document CHEMBL1126414, “Dopamine receptor binding properties of some 2,3,4,5-tetrahydro-1H-3-benzazepine-7-ols with non-aromatic substituents in the 5-position” (Bioorg Med Chem Lett, 1992).

Experiments:
Rattus norvegicus = assay: Minimal dose producing reduction in avoidance responding after sc administration for 1 hr in rat; format: functional
D(2) dopamine receptor = D(2) dopamine receptor (Rattus norvegicus, UniProt P61169); assay: Binding affinity towards Dopamine receptor D2 in rat striatal tissue by [3H]spiperone displacement.; format: tissue-based, Striatum
D(2) dopamine receptor, sequence (P61169 whole entry): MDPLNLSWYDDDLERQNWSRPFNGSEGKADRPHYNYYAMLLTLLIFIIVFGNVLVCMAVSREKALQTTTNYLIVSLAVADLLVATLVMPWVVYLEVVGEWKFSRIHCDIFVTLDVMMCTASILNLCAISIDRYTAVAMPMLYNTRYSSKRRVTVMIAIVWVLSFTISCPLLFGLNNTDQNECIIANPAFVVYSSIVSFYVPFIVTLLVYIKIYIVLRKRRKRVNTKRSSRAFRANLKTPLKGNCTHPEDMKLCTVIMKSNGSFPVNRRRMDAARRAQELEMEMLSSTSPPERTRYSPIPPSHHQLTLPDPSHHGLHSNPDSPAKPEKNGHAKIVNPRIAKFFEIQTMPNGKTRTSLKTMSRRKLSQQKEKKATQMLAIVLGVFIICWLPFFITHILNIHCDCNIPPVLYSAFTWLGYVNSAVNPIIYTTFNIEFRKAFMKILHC

D(1A) dopamine receptor = D(1A) dopamine receptor (Rattus norvegicus, UniProt P18901); assay: Binding affinity towards Dopamine receptor D1 in rat striatal tissue by [3H]-SCH- 23390 displacement.; format: tissue-based, Striatum
D(1A) dopamine receptor, sequence (P18901 whole entry): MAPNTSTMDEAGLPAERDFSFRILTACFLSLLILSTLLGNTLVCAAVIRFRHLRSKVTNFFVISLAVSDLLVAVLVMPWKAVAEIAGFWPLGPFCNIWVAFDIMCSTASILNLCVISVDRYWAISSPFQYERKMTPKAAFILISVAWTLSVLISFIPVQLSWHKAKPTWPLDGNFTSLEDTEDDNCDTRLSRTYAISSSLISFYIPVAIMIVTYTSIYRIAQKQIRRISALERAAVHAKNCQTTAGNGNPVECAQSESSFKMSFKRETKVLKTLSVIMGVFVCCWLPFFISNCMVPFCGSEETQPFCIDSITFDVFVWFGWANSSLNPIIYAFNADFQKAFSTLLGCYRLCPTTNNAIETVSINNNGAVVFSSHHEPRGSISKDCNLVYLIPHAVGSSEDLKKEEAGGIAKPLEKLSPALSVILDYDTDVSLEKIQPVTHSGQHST

Row | SMILES | Ki (D(2) dopamine receptor) | Ki (D(1A) dopamine receptor) | CAR (Rattus norvegicus)
1 | CN1CCc2cc(Cl)c(O)cc2C(C2C=CC=CC=C2)C1 (centres undefined) | 1800 nM | 3.7 nM | 0.1 MPK
2 | CCOC1CN(C)CCc2cc(Cl)c(O)cc21 (centres undefined) | > 10000 nM | 24 nM | 1 MPK
3 | CCCC1CN(C)CCc2cc(Cl)c(O)cc21 (centres undefined) | 1160 nM | 3.3 nM | 0.3 MPK
4 | CN1CCc2cc(Cl)c(O)cc2C(C2=CCCCC2)C1 (centres undefined) | 1600 nM | 2.1 nM | 0.1 MPK
5 | CN1CCc2cc(Cl)c(O)cc2C(N2CCCCC2)C1 (centres undefined) | > 10000 nM | 100 nM | 3 MPK
6 | CN1CCc2cc(Cl)c(O)cc2C2(CCCC2)C1 | 2250 nM | 23 nM | 1 MPK
7 | CCSC1CN(C)CCc2cc(Cl)c(O)cc21 (centres undefined) | 2710 nM |  | 
8 | CN1CCc2cc(Cl)c(O)cc2C(C2CCCC2)C1 (centres undefined) | 2050 nM | 13 nM | 1 MPK
9 | CN1CCc2cc(O)c(Cl)cc2CC1 | 265 nM | 46 nM | 1 MPK
10 | CN(C)CCCC1CN(C)CCc2cc(Cl)c(O)cc21 (centres undefined) | > 100000 nM | > 1000 nM | 
11 | CN1CCc2cc(Cl)c(O)cc2C(C2CCCCC2)C1 (centres undefined) | 1780 nM |  | 0.3 MPK
12 | CN1CCc2cc(Cl)c(O)cc2[C@@H](c2ccccc2)C1 [SCH-23390] |  |  | 0.02 MPK

Further compounds by falling Ki (D(2) dopamine receptor), results first:

Row | Ki (D(2) dopamine receptor) | Ki (D(1A) dopamine receptor) | SMILES | CAR (Rattus norvegicus)
13 | 1540 nM | 5.1 nM | CN1CCc2cc(Cl)c(O)cc2C(C2=CCCC2)C1 (centres undefined) | 
14 | 1190 nM | 7.6 nM | CN1CCc2cc(Cl)c(O)cc2C(C2CCCCCC2)C1 (centres undefined) | 1 MPK
15 | 626 nM | 8.7 nM | C#CCC1CN(C)CCc2cc(Cl)c(O)cc21 (centres undefined) | 1 MPK
16 | 581 nM | 2 nM | CN1CCc2cc(Cl)c(O)cc2C(C2C=CCCC2)C1 (centres undefined) | 0.3 MPK
17 | 284 nM | 5.7 nM | C=CCC1CN(C)CCc2cc(Cl)c(O)cc21 (centres undefined) | 0.1 MPK
